The values that follow come from patent publication US7592367B2, “Compounds from Garcinia hanburyi, their use in treating cancer and method of separating epimers thereof” (priority 2005, dated 2009).

Like-named read-outs stand apart in the source and are kept apart here.

The test system of data set [1] is doxorubicin-resistant K562 (K562/R) cell line. Briefly: MTT cytotoxicity assay, doxorubicin-resistant K562. Conditions: read-out: Cytotoxicity IC50 against K562/R. It is filed as cell-based, human. On the procedure:
MTT assay was performed using a reported method. […] Absorbance of untreated controls was taken as 100%. […] An aliquot of the supernatant was analyzed by HPLC.

In data set [2] the test system is human cytochrome P-450 enzymes (1A2, 2A6, 2D6, 2E1, 3A4). Briefly: CYP inhibition in human liver microsomes, five isoforms other than CYP2C9. It is filed as in vitro ADME. Conditions: probe reactions.
For data set [3], the system named is human leukemia K562 (K562/S) cell line. As to the kind of experiment: MTT cytotoxicity assay, doxorubicin-sensitive K562.
Description: Both doxorubicin-resistant (K562/R) and -sensitive K562 (K562/S) cell sublines, purchased from Tianjin Instute of Hematopathy, the Chinese Academy of Medical Sciences, China, were cultured in PRMI1640 (Gibco, USA) medium and supplemented with 10 fetal bovine serums at 37° C. in a humidified incubator with 5% CO2. MTT assay was performed using a reported method [12]. Cell lines were seeded into 96-well plates at 6000 viable cells per well. The test chemicals (ADR, DMSO, Th1 and Th2) with different concentrations were loaded in a final volume of 200 μL per well. After 44 hours of incubation, MTT (5 g/L) was added to each well in a volume of 10 μl and incubated for 4 hours. Afterwards, the medium was removed and 200 μl of Me2SO (37° C.) was added and shaken for 5 minutes. A 96-well microtiter plate reader was used to determine absorbance values at 570 nm. Mean value of each concentration (n=3 wells) was obtained. Absorbance of untreated controls was taken as 100%. Survival rate was calculated as follows: Cell survival rate (%)=(T−B)/(U−B)×100%, T (treated) is absorbance of chemically treated cells, U (untreated) is the absorbance of untreated cells, and B (blank) is the absorbance when neither cells nor chemicals was added.
Data set [4] relates to doxorubicin-resistant K562 (K562/R) cell line.
Description: (§1) Cytotoxicity Assay: Both epimers were tested for their cytotoxicities against human leukemia K562 (K562/S) and doxorubicin-resistant K562 (K562/R) cell lines, using the SRB method previously described with doxorubicin being the positive control. The OD data were recorded in X±S, and the IC50 values were calculated with sigmoidal plot.
Data set [5] deals with human leukemia K562 (K562/S) cell line.
Description: as §1
For data set [6], the system named is doxorubicin-resistant K562 (K562/R) cell line. As to the kind of experiment: SRB cytotoxicity assay, doxorubicin-resistant K562. Conditions: Homo sapiens, K-562R, read-out: Cytotoxicity IC50 against K562/R.
Description: as §1
The subject of data set [7] is human leukemia K562 (K562/S) cell line. As to the kind of experiment: SRB cytotoxicity assay, K562/S. To be noted: K562, read-out: Cytotoxicity IC50 against K562/S.
Description: as §1
The target of a further data set is T1, CYP2C9 (Homo sapiens, UniProt P11712).
T1 construct: HLM were prepared from liver tissue as described in the literature [13]; from tissue; host or cells: human liver microsomes prepared from an autopsy liver sample (person)
T1 sequence (P11712 whole entry): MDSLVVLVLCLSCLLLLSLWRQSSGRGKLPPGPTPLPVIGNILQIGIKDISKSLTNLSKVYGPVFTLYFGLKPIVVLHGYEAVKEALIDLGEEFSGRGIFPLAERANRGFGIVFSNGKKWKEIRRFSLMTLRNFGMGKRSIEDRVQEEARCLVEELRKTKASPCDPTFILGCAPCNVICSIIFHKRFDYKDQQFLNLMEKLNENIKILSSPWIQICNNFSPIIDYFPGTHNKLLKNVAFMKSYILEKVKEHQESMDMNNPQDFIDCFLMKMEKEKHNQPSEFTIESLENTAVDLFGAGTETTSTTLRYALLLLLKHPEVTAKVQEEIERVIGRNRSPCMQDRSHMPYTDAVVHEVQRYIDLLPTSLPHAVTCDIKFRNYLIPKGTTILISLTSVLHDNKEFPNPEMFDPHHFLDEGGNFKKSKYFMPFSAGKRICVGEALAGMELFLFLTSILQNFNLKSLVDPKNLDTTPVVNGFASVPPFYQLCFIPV
It counts as in vitro ADME. Conditions: microsomes.

Setting [8] is: Homo sapiens, K562, read-out: Cytotoxicity IC50 against K562/S.

As to `CC(C)=CCC[C@]1(C)C=Cc2c(O)c3c(c(CC=C(C)C)c2O1)O[C@]12C(=C[C@@H]4C[C@H]1C(C)(C)O[C@@]2(C/C=C(/C)C(=O)O)C4=O)C3=O` (single isomer, unassigned) [Epimer 1, gambogic acid], the IC50 in data set [1] (Homo sapiens, K-562R) came out at 1.32 µM; in data set [3] (setting [8]) it was 0.89 µM. Besides, in data set [2], the “Inhibitory effect toward five human cytochrome P-450 enzymes other than CYP2C9” value is listed as “little inhibitory effects”.

For 30-hydroxyepigambogic acid [compound 2], the IC50 in data set [4] was 4.49 ± 0.31 µM; in data set [5], 3.61 ± 0.17 µM.

In the case of `COc1cccc2c1C(=O)c1c(O)c3c(c(O)c1C2=O)C[C@@](O)(C(=O)CO)C[C@@H]3O[C@H]1C[C@H](N)[C@H](O)[C@H](C)O1` [Doxorubicin, doxorubicin, reference compound], the IC50 was 10.8 µM in data set [1] (Homo sapiens, K-562R, doxorubicin-resistant K562/R, Example 1 MTT assay, Table 4 columns marked ^a); 1.79 ± 0.17 µM in data set [6]; 0.66 µM in data set [3] (setting [8]); 0.11 ± 0.01 µM in data set [7].

In the case of `CC(C)=CCCC1(C)C=Cc2c(O)c3c(c(CC=C(C)C)c2O1)OC12C(=CC4CC1C(C)(C)OC2(CC=C(C)C(=O)O)C4=O)C3=O` (single isomer, unassigned; epimer 2) [Epimer 2, epigambogic acid], the IC50 amounted to 1.11 µM in data set [1] (doxorubicin-resistant K562/R, Example 1 MTT assay, Table 4 columns marked ^a) and 0.86 µM in data set [3] (read-out: Cytotoxicity IC50 against K562/S, K562/S, Example 1 MTT assay, Table 4 columns marked ^a). In data set [2], the “Inhibitory effect toward five human cytochrome P-450 enzymes other than CYP2C9” value is listed as “little inhibitory effects”. Moreover, on CYP2C9, the “CYP2C9 inhibitory effect, S-epimer relative to R-epimer” value is 20 folds.

Consider 30-hydroxygambogic acid [compound 1], for which the IC50 in data set [4] was found to be 2.89 ± 0.35 µM; in data set [5], 1.27 ± 0.15 µM.
